According to patent publication US8664235B2, “6-Halogeno-[1,2,4]triazolo[1,5-a]pyrimidines for combating animal pests” (Merial Limited, priority 2003, dated 2014):

Experiments:
Type in all cases: in vivo
[1] = tested on: Cotton Aphid (Aphis gossypii); assay: Cotton aphid test, cotyledons dipped in test solution; settings: 120 h, cotton plants, after 5 days, read-out: mortality in comparison with untreated controls
Protocol: (§1) Surfactant (Alkamuls EL 620) was added at the rate of 0.1% (vol/vol).
(§2) After the experiments were completed, in each case the lowest concentration was determined at which the compound still caused an 75 to 100% inhibition or mortality in comparison with untreated controls (limit or minimal concentration).
(§3) Cotton plants in the cotyledon stage (variety ‘Delta Pine’) are infested with approximately 100 laboratory-reared aphids by placing infested leaf sections on top of the test plants. The leaf sections are removed after 24 hr. The cotyledons of the intact plants are dipped into gradient solutions of the test compound. Aphid mortality on the treated plants, relative to mortality on check plants, is determined after 5 days.

[2] = tested on: Twospotted Spider Mite (Tetranychus urticae); assay: Twospotted spider mite test, lima bean foliage dipped; settings: foliar, 120 h, lima bean plants, after 5 days, read-out: mortality in comparison with untreated controls
Protocol: as §1, §2
Lima bean plants in the 1st leaf-pair stage (variety ‘Henderson’) are infested with approximately 100 laboratory-reared mites per leaf by placing infested leaf sections on top of the test plants. The leaf sections are removed after 24 hr. The foliage of the intact plants is dipped into gradient solutions of the test compound. Mite mortality is determined after 5 days.

[3] = tested on: Green Peach Aphid (Myzus persicae); assay: Green peach aphid test, pepper leaves dipped; settings: 120 h, read-out: mortality in comparison with untreated controls
Protocol: as §1, §2
as §3, with “Pepper” for “Cotton”, “2nd leaf-pair” for “cotyledon”, “‘California Wonder’)” for “‘Delta Pine’)”, “40” for “100”, “leaves” for “cotyledons”

Bean Aphid (Aphis fabae) = assay: Bean aphid test, nasturtium foliage and stem dipped; settings: foliar, 72 h, nasturtium plants, after 3 days, read-out: mortality in comparison with untreated controls
Protocol: as §1, §2
Nasturtium plants in the 1st leaf-pair stage (variety ‘Mixed Jewel’) are infested with approximately 25 laboratory-reared aphids by placing infested cut plants on top of the test plants. The cut plants are removed after 24 hr. The foliage and stem of the test plants are dipped into gradient solutions of the test compound. Aphid mortality is determined after 3 days.

| SMILES | mortality at 300 ppm [1] [%] | mortality at 300 ppm [2] [%] | mortality at 300 ppm [3] [%] | mortality at 300 ppm (Bean Aphid (Aphis fabae)) [%] |
| --- | --- | --- | --- | --- |
| CCc1nc2ncnn2c(N[C@H]2CC[C@@H](C(C)(C)C)CC2)c1Cl [Example 1, (cis-4-tert-butyl-cyclohexyl)-[6-chloro-5-ethyl-[1,2,4]triazolo[1,5-a]pyrimidin-7-yl]-amine] | > 75 | > 75 | 100 | > 75 |
| Cc1nc2ncnn2c(N[C@@H](C)c2ccc(F)cc2)c1Cl [Example 114, (S)-(6-chloro-5-methyl-[1,2,4]triazolo[1,5-a]pyrimidin-7-yl)-[1-(4-fluorophenyl)-ethyl]-amine] | > 75 | – | 100 | – |
